We go through 26 compounds from patent US20200016159A1, “N3-CYCLICALLY SUBSTITUTED THIENOURACILS AND USE THEREOF” (Bayer Aktiengesellschaft, priority 2016, published 2020).

Broadly, the IC50 is the point on the concentration scale where inhibition reaches its midpoint.

The target in this experiment is T1, human adenosine A2b receptor (Homo sapiens, UniProt P29275).
T1 sequence (P29275 1-332): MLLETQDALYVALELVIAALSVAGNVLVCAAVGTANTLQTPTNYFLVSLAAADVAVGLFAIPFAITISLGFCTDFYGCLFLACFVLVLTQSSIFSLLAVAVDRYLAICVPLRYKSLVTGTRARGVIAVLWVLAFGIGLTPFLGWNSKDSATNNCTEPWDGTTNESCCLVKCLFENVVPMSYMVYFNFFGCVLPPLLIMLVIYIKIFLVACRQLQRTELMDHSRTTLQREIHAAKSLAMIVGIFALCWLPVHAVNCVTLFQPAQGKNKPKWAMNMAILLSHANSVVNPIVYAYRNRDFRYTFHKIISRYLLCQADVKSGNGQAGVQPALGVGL
As to the kind of experiment: Cellular in vitro reporter gene test for A2b receptor activity (antagonism of NECA). Set-up: expressed in transfected cells; host or cells: CHO-K1 (Chinese hamster ovary) with CRE-luciferase reporter. The class given is cell-based. The conditions noted are these: recombinant CHO-K1 cells, CRE-luciferase reporter, co-incubation with EC50 concentration of NECA, 3 hours. In short, it runs like this: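 Antagonism measured as block of NECA-induced, cAMP/CRE-dependent luciferase expression in recombinant A2b CHO-K1 cells. NECA used at the EC50 set in a pre-experiment on each test day; luminescence detected after 3 h. Reported as IC50, partly averaged and rounded to two significant figures.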
In general terms: A reporter such as luciferase makes a cellular process visible.
For `COCCn1c(=O)n(C2CC2C(F)(F)F)c(=O)c2c(C)c(Cn3nc[nH]c3=O)sc21` (single isomer, unassigned) [Example 299, 1-(2-Methoxyethyl)-5-methyl-6-[(5-oxo-4,5-dihydro-H-1,2,4-triazol-1-yl)methyl]-3-[2-(trifluoromethyl)cyclopropyl]thieno[2,3-d]pyrimidine-2,4(1H,3H)-dione], the IC50 amounted to 220 nM.
For the compound `CCc1c(CN2CCNC2=O)sc2c1c(=O)n(C1(C)CC1)c(=O)n2CCC(F)(F)F` [Example 218, 5-Ethyl-3-(1-methylcyclopropyl)-6-[(2-oxoimidazolidin-1-yl)methyl]-1-(3,3,3-trifluoropropyl)thieno[2,3-d]pyrimidine-2,4(1H,3H)-dione], the IC50 worked out at 54 nM.
Regarding `COCCn1c(=O)n([C@H]2C[C@@H](OC)C2)c(=O)c2c(C)c(CN3CCNC3=NC#N)sc21` [Example 160, [1-{[3-(cis-3-Methoxycyclobutyl)-1-(2-methoxyethyl)-5-methyl-2,4-dioxo-1,2,3,4-tetrahydrothieno[2,3-d]pyrimidin-6-yl]methyl}imidazolidin-2-ylidene]cyanamide], the IC50 worked out at 200 nM.
Next, `COCCn1c(=O)n(C2CC3(CCC3)C2)c(=O)c2c(C)c(CN3CCNC(=O)C3=O)sc21` [Example 182, 6-[(2,3-Dioxopiperazin-1-yl)methyl]-1-(2-methoxyethyl)-5-methyl-3-(spiro[3.3]hept-2-yl)thieno[2,3-d]pyrimidine-2,4(1H,3H)-dione]: 27 nM; `CCC1CC1n1c(=O)c2c(C)c(Cn3nc[nH]c3=O)sc2n(CCOC)c1=O` (single isomer, unassigned) [Example 304, 3-(2-Ethylcyclopropyl)-1-(2-methoxyethyl)-5-methyl-6-[(5-oxo-4,5-dihydro-H-1,2,4-triazol-1-yl)methyl]thieno[2,3-d]pyrimidine-2,4(1H,3H)-dione]: 350 nM; `Cc1c(CN2CCNC2=O)sc2c1c(=O)n(C1CC1(C)C)c(=O)n2CCC(F)(F)F` (racemic) [Example 100, 3-(2,2-Dimethylcyclopropyl)-5-methyl-6-[(2-oxoimidazolidin-1-yl)methyl]-1-(3,3,3-trifluoropropyl)thieno[2,3-d]pyrimidine-2,4(1H,3H)-dione]: 12 nM.
Next, `Cc1c(CN2CCNC2=NC#N)sc2c1c(=O)n(C1CC1)c(=O)n2CC1CCCO1` (racemic) [Example 41, [1-{[3-Cyclopropyl-5-methyl-2,4-dioxo-1-(tetrahydrofuran-2-ylmethyl)-1,2,3,4-tetrahydrothieno[2,3-d]pyrimidin-6-yl]methyl}imidazolidin-2-ylidene]cyanamide]: 16 nM; `COCCn1c(=O)n(C2(C)CC2)c(=O)c2c(C)c(CN3CCNC(=O)C3=O)sc21` [Example 73, 6-[(2,3-Dioxopiperazin-1-yl)methyl]-1-(2-methoxyethyl)-5-methyl-3-(1-methylcyclopropyl)thieno[2,3-d]pyrimidine-2,4(1H,3H)-dione]: 29 nM; `Cc1c(Cn2nc[nH]c2=O)sc2c1c(=O)n(C1CC1)c(=O)n2CCCC(F)(F)F` [Example 201, 3-Cyclopropyl-5-methyl-6-[(5-oxo-4,5-dihydro-1H-1,2,4-triazol-1-yl)methyl]-1-(4,4,4-trifluorobutyl)thieno[2,3-d]pyrimidine-2,4(1H,3H)-dione]: 53 nM.
Next, `Cc1c(Cn2nc[nH]c2=O)sc2c1c(=O)n(C1CC1)c(=O)n2CCF` [Example 196, 3-Cyclopropyl-1-(2-fluoroethyl)-5-methyl-6-[(5-oxo-4,5-dihydro-1H-1,2,4-triazol-1-yl)methyl]thieno[2,3-d]pyrimidine-2,4(1H,3H)-dione]: 210 nM; `Cc1c(CN2CCNC(=O)C2=O)sc2c1c(=O)n(C1CC1)c(=O)n2CC1CCCO1` (racemic) [Example 45, 3-Cyclopropyl-6-[(2,3-dioxopiperazin-1-yl)methyl]-5-methyl-1-(tetrahydrofuran-2-ylmethyl)thieno[2,3-d]pyrimidine-2,4(1H,3H)-dione]: 110 nM.
As for `Cc1c(CN2CCNC2=O)sc2c1c(=O)n(C1CC1C)c(=O)n2CC(F)F` (single isomer, unassigned) [Example 236, 1-(2,2-Difluoroethyl)-5-methyl-3-(2-methylcyclopropyl)-6-[(2-oxoimidazolidin-1-yl)methyl]thieno[2,3-d]pyrimidine-2,4(1H,3H)-dione], the IC50 came to 1.2 nM.
For `Cc1c(CN2CCNC(=O)C2=O)sc2c1c(=O)n(C1CC1)c(=O)n2CCCF` [Example 8, 3-Cyclopropyl-6-[(2,3-dioxopiperazin-1-yl)methyl]-1-(3-fluoropropyl)-5-methylthieno[2,3-d]pyrimidine-2,4(1H,3H)-dione], the IC50 stood at 44 nM.
Next, `COCCn1c(=O)n([C@H]2C[C@@H](OC)C2)c(=O)c2c(C)c(CN3CCNC(=O)C3=O)sc21` [Example 162, 6-[(2,3-Dioxopiperazin-1-yl)methyl]-3-(cis-3-methoxycyclobutyl)-1-(2-methoxyethyl)-5-methylthieno[2,3-d]pyrimidine-2,4(1H,3H)-dione]: 730 nM; `CCCn1c(=O)n(C2CC2)c(=O)c2c(C)c(Cn3nc[nH]c3=O)sc21` [Example 195, 3-Cyclopropyl-5-methyl-6-[(5-oxo-4,5-dihydro-1H-1,2,4-triazol-1-yl)methyl]-1-propylthieno[2,3-d]pyrimidine-2,4(1H,3H)-dione]: 120 nM.
For `Cc1c(Cn2nc[nH]c2=O)sc2c1c(=O)n([C@H]1C[C@@H]1C)c(=O)n2CC(F)(F)F` [Example 321, 5-Methyl-3-[(1S,2S)-2-methylcyclopropyl]-6-[(5-oxo-4,5-dihydro-1H-1,2,4-triazol-1-yl)methyl]-1-(2,2,2-trifluoroethyl)thieno[2,3-d]pyrimidine-2,4(1H, 3H)-dione] the value was 17 nM; for `Cc1c(CN2CCNC2=O)sc2c1c(=O)n(C1CC1C)c(=O)n2CC(F)(F)F` (single isomer, unassigned) [Example 238, 5-Methyl-3-(2-methylcyclopropyl)-6-[(2-oxoimidazolidin-1-yl)methyl]-1-(2,2,2-trifluoroethyl)thieno[2,3-d]pyrimidine-2,4(1H,3H)-dione], 24 nM.
For `Cc1c(CN2CCNC2=NC#N)sc2c1c(=O)n(C1CC3(CCC3)C1)c(=O)n2CCC(F)(F)F` [Example 175, [1-{[5-Methyl-2,4-dioxo-3-(spiro[3.3]hept-2-yl)-1-(3,3,3-trifluoropropyl)-1,2,3,4-tetrahydrothieno[2,3-d]pyrimidin-6-yl]methyl}imidazolidin-2-ylidene]cyanamide] the value was 18 nM; for `Cc1c(Cn2nc[nH]c2=O)sc2c1c(=O)n(C1(C)CCC1)c(=O)n2CCC(F)(F)F` [Example 138, 5-Methyl-3-(1-methylcyclobutyl)-6-[(5-oxo-4,5-dihydro-1H-1,2,4-triazol-1-yl)methyl]-1-(3,3,3-trifluoropropyl)thieno[2,3-d]pyrimidine-2,4(1H,3H)-dione], 260 nM.
Consider `COCCn1c(=O)n(C2CC2)c(=O)c2c(C)c(CN3CCNC3=O)sc21` [Example 24, 3-Cyclopropyl-1-(2-methoxyethyl)-5-methyl-6-[(2-oxoimidazolidin-1-yl)methyl]thieno[2,3-d]pyrimidine-2,4(1H,3H)-dione], for which the half-inhibitory concentration (IC50) came out at 29 nM.
For `COCCn1c(=O)n(C2CC2)c(=O)c2c(C)c(Cn3cc[nH]c3=O)sc21` [Example 28, 3-Cyclopropyl-1-(2-methoxyethyl)-5-methyl-6-[(2-oxo-2,3-dihydro-1H-imidazol-1-yl)methyl]thieno[2,3-d]pyrimidine-2,4(1H,3H)-dione] the value was 19 nM; for `CCCCn1c(=O)n(C2CC2)c(=O)c2c(C)c(Cn3nc[nH]c3=O)sc21` [Example 4, 1-Butyl-3-cyclopropyl-5-methyl-6-[(5-oxo-4,5-dihydro-H-1,2,4-triazol-1-yl)methyl]thieno[2,3-d]pyrimidine-2,4(1H,3H)-dione], 34 nM.
Next, `Cc1c(Cn2nc[nH]c2=O)sc2c1c(=O)n(C1CC1)c(=O)n2CCOC(C)C` [Example 34, 3-Cyclopropyl-1-(2-isopropoxyethyl)-5-methyl-6-[(5-oxo-4,5-dihydro-H-1,2,4-triazol-1-yl)methyl]thieno[2,3-d]pyrimidine-2,4(1H,3H)-dione]: 500 nM; `COC(=O)N=C1NCCN1Cc1sc2c(c1C)c(=O)n(C1CC1C)c(=O)n2CCOC(F)(F)F` (racemic) [Example 267, Methyl [1-({5-methyl-3-(2-methylcyclopropyl)-2,4-dioxo-1-[2-(trifluoromethoxy)ethyl]-1,2,3,4-tetrahydrothieno[2,3-d]pyrimidin-6-yl}methyl)imidazolidin-2-ylidene]carbamate]: 2.4 nM.
In the case of `COCCn1c(=O)n(C2(C)CCC2)c(=O)c2c(C)c(CN3CCNC3=O)sc21` [Example 139, 1-(2-Methoxyethyl)-5-methyl-3-(1-methylcyclobutyl)-6-[(2-oxoimidazolidin-1-yl)methyl]thieno[2,3-d]pyrimidine-2,4(1H,3H)-dione], the IC50 was 310 nM.
For `Cc1c(CN2CCNC2=O)sc2c1c(=O)n(C1CC1C)c(=O)n2CCC(F)(F)C(F)F` (single isomer, unassigned) [Example 246, 5-Methyl-3-(2-methylcyclopropyl)-6-[(2-oxoimidazolidin-1-yl)methyl]-1-(3,3,4,4-tetrafluorobutyl)thieno[2,3-d]pyrimidine-2,4(1H,3H)-dione] the value was 22 nM.
